SMILES strings stand for the structures. ≈ marks a conversion by molar mass, not a printed value.

As a reminder, the MIC is the smallest concentration in the dilution series that meets the test's criterion for growth inhibition. A low value points to a more susceptible organism.

Format in all cases: cell-based
The test system of experiment [1] is C. freundii 87. Briefly: New AST method using bichromatic absorbance between 405 and 620 nm. An excerpt:
(§1) The goals of the new AST method are to achieve higher precision, greater accuracy and increased reliability by using (1) quantitative spectral information derived from bichromatic measurements, (2) a dynamic breakpoint for individual drug wells based on their initial condition, and (3) a susceptibility index for determining susceptibility. The new AST method includes the following processes.
(§2) Bichromatic absorbance is the difference between the primary wavelength with significant turbidity and the secondary wavelength with little turbidity. For Gram positive organisms, the wavelengths are 505 and 620 for all drugs.
(§3) For Gram negative organisms, the wavelengths are 405 and 620 nm for most drugs except Nitrofurantoin and tetracycline. The wavelengths for Nitrofurantoin and tetracycline are 505 and 620 nm.
(§4) The susceptibility index (SI) is the ratio of the initial and final absorbance after correction for system drift. The susceptibility indexes are calculated for each drug well and the growth well (positive control well). The following formula (equation 1) is used to calculate the susceptibility index:
(§5) where • Di=Initial bichromatic absorbance from drug well • Df=Final bichromatic absorbance from drug well • Ci=Initial bichromatic absorbance from control ([…]) well • Cf=Final bichromatic absorbance from control (negative control) well
(§6) Compare susceptibility indices from drug wells to determine growth/no growth. A value of 1.05 is presently preferred for use as a cutoff to determine growth. The value may be adjusted as assay procedures undergo further refinement but is nonetheless expected to retain a value approaching 1.
(§7) In the current conventional MIC methods used in many art-recognized systems, the MIC is the first no growth well after the last growth well in the dilution series. Difficulties in interpretation occur, however, when there are “no growth” wells interspersed amongst “growth” wells in the same series. Conventional methods treat these no growth wells as “skipped” wells and the MIC is adjusted according to the number of skipped wells. In the methods and systems of the invention, however, an algorithm is applied which more accurately identifies which wells are true skipped wells. In addition, the algorithm is applied to determine which wells are contaminated. Use of the new system increases the accuracy of the read substantially.

The subject of experiment [2] is C. freundii 87. Briefly: Manual read MIC. To be noted: Citrobacter freundii; C. freundii 87, manual read. An excerpt: (§8) (see, e.g., Dried Gram Negative Procedural Manual, supra, at page 1 (and references cited therein).) Appropriate specimens should be collected, transported, and placed on primary isolation media according to procedures recommended in the Manual of Clinical Microbiology (Murray, et al. (eds.), Manual of Clinical Microbiology, 6th ed., American Society for Microbiology, Washington, D.C. (1995)). Subsequently, a standard, automated assay may thus be conducted essentially as follows.
(§9) The panels may be read manually (e.g. using a MICROSCAN® Microdilution Viewer, Dade MicroScan Inc., West Sacramento, Calif.) and results recorded on an appropriate worksheet. The panels may also—or alternatively—be read instrumentally, e.g., using a TOUCHSCAN®-SR, AUTOSCAN®-4, or WALKAWAY® system (Dade MicroScan Inc., West Sacramento, Calif.). Refer to the appropriate operator's manual for reading panels using instrumentation.

For experiment [3], the system named is C. freundii 87. Briefly: Conventional AST method using absorbance at 620 nm. To be noted: Citrobacter freundii, 3 hrs and 16 hrs, breakpoint 1800.
Description: In the conventional method, the analyte is turbidity and its measurement at 620 nm wavelength is used to quantify growth. The current conventional AST method determines growth by comparing the calculated processed value, which is the 620 nm absorbance difference between two (2) hours and forty-five minutes and 16 or 18 hours against a breakpoint. This breakpoint was determined by testing 100-200 isolates and reading results manually or via instruments and correlating the reads of those isolates to their processed values. […] Subsequently, a standard, automated assay may thus be conducted essentially as follows.
Experiment [4] relates to C. freundii 104. Briefly: Conventional AST method using absorbance at 620 nm. Conditions: Citrobacter freundii, 4 hrs and 16 hrs, breakpoint 400. Here is the method:
The monochromatic method of spectral analysis involves selecting a single wavelength that contains a unique spectral feature for the analyte of interest. In the conventional method, the analyte is turbidity and its measurement at 620 nm wavelength is used to quantify growth. The current conventional AST method determines growth by comparing the calculated processed value, which is the 620 nm absorbance difference between two (2) hours and forty-five minutes and 16 or 18 hours against a breakpoint. This breakpoint was determined by testing 100-200 isolates and reading results manually or via instruments and correlating the reads of those isolates to their processed values. This approach has limited capability because the processed value is not corrected for system-dependent variations and the breakpoint is not adaptable to system change. […] (see, e.g., Dried Gram Negative Procedural Manual, supra, at page 1 (and references cited therein).) Appropriate specimens should be collected, transported, and placed on primary isolation media according to procedures recommended in the Manual of Clinical Microbiology (Murray, et al. (eds.), Manual of Clinical Microbiology, 6th ed., American Society for Microbiology, Washington, D.C. (1995)). Subsequently, a standard, automated assay may thus be conducted essentially as follows.

Experiment [5] has as its system C. freundii 104. Briefly: New AST method using bichromatic absorbance between 405 and 620 nm. To be noted: for Susceptibility Index (D6 − C6)/(D3 − C3): 6 hrs vs 3 hrs.
Description: as §1, §2, §3, §4, §5, §6, §7

Experiment [6] deals with C. freundii 104. Briefly: Manual read MIC. Conditions: Citrobacter freundii; C. freundii 104, manual read.
Description: as §8, §9

[7] abbreviates: Citrobacter freundii, bichromatic 405-620 nm, 3 hrs and 6 hrs.

For `Cc1cc(NS(=O)(=O)c2ccc(N)cc2)no1` [Sulfamethoxazole], the MIC is > 256 µg/mL with C. freundii 87 [1] (setting [7]), > 256 µg/mL in the experiment with C. freundii 87 [2] and < 256 µg/mL against C. freundii 87 [3]. The “Susceptibility Index (D6 − C6)/(D3 − C3)” value in the experiment with C. freundii 87 [1] (drug level 256 μg/mL, 6 hrs vs 3 hrs) is on record as 1639/1064 = 1.5.

On to `NC[C@H]1O[C@H](O[C@H]2[C@H](O)[C@@H](O[C@H]3O[C@H](CO)[C@@H](O)[C@H](N)[C@H]3O)[C@H](N)C[C@@H]2N)[C@H](N)C[C@@H]1O` [Tobramycin], for which the MIC in the experiment with C. freundii 104 [4], in the experiment on C. freundii 104 [5] (setting [7]) and with C. freundii 104 [6] was 2 µg/mL (≈ 4.28 µM) throughout. Besides, the “Susceptibility Index (D6 − C6)/(D3 − C3)” value in the experiment with C. freundii 104 [5] (drug level 0.5 μg/mL) is given as 3696/1205 = 3.0; in the experiment on C. freundii 104 [5] (drug level 1 μg/mL), 1898/1201 = 1.6; in the experiment with C. freundii 104 [5] (drug level 2 μg/mL), 1145/1180 = 1.0; in the experiment on C. freundii 104 [5] (drug level 4 μg/mL), 1096/1136 = 1.0; with C. freundii 104 [5] (drug level 8 μg/mL), 1196/1237 = 1.0.

Values taken from patent US8828680B2, “Combined rapid susceptibility assay and microorganism identification system” (Siemens Healthcare Diagnostics Inc., priority 1999, dated 2014).
